| SMILES | melting point |
| --- | --- |
| CCSc1cc(C)nc(SCC)c1NC(=O)CCCCCSc1nc2ccccc2o1 [compound 815, 6-(benzoxazol-2-ylthio)-N-[2,4-bis(ethylthio)-6-methyl-3-pyridyl]hexanamide] | 100 to 103 °C |
| CSc1ncccc1NC(=O)CCCCCSc1nc2ccccc2o1 [compound 5, 6-(benzoxazol-2-ylthio)-N-(2-methylthio-3-pyridyl)hexanamide] | 127 to 128 °C |
| CSc1cc(C)nc(SC)c1NC(=O)CCCCCCCSc1nc2ccccc2s1 [Compound No. 797, 8-(benzthiazol-2-ylthio)-N-[2,4-bis(methylthio)-6-methyl-3-pyridyl)octanamide] | 104 to 108 °C |
| CSc1cc(C)nc(SC)c1NC(=O)CCCCCCCCSc1nc2ccccc2o1 [compound 788, 9-(benzoxazol-2-ylthio)-N-[2,4-bis(methylthio)-6-methyl-3-pyridyl]nonanamide] | 123 to 124 °C |
| CCSc1cc(C)nc(SCC)c1NC(=O)CCCCCCSc1nc2ccccc2[nH]1 [Compound No. 836, 7-(benzimidazol-2-ylthio)-N-[2,4-bis(ethylthio)-6-methyl-3-pyridyl]heptanamide] | 151 to 156 °C |
| CCSc1cc(C)nc(SCC)c1NC(=O)CCCCCCCSc1nc2cccc(C(F)(F)F)c2o1 [Compound No. 1273, 8-(7-trifluoromethylbenzoxazol-2-ylthio)-N-[2,4-bis(ethylthio)-6-methyl-3-pyridyl]octanamide] | 99 to 100 °C |
| CSc1cc(C)nc(SC)c1NC(=O)CCCCCSc1nc2ccccc2o1 [compound 785, 6-(benzoxazol-2-ylthio)-N-[2,4-bis(methylthio)-6-methyl-3-pyridyl]hexanamide] | 120 to 121 °C |
| CSc1cc(C)nc(SC)c1NC(=O)CCCSc1nc2ccccc2o1 [compound 783, 4-(benzoxazol-2-ylthio)-N-[2,4-bis(methylthio)-6-methyl-3-pyridyl]butanamide] | 149 to 150 °C |
| CSc1nc(C)ccc1NC(=O)CSc1nc2ccccc2[nH]1 [Compound No. 471, 2-(benzimidazol-2-ylthio)-N-(6-methyl-2-methylthio-3-pyridyl)acetamide] | 192 to 193 °C (dec.) |
| Cc1cc(SC(C)C)c(NC(=O)CCCCCSc2nc3cccc(C(F)(F)F)c3o2)c(SC(C)C)n1 [Compound No. 1291, 6-(7-trifluoromethylbenzoxazol-2-ylthio)-N-[2,4-bis(isopropylthio)-6-methyl-3-pyridyl]hexanamide] | 102 to 103 °C |
| CCSc1cc(C)nc(SCC)c1NC(=O)CSc1nc2cccc(C(F)(F)F)c2o1 [Compound No. 1267, 2-(7-trifluoromethylbenzoxazol-2-ylthio)-N-[2,4-bis(ethylthio)-6-methyl-3-pyridyl]acetamide] | 182 to 183 °C |
| CSc1cc(C)nc(SC)c1NC(=O)CCCCSc1nc2ccccc2o1 [Compound No. 784, 5-(benzoxazol-2-ylthio)-N-(2,4-bis(methylthio)-6-methyl-3-pyridyl)pentanamide] | 147 to 150 °C |
| CCSc1cc(C)nc(SCC)c1NC(=O)CCCCSc1nc2c(C)c(Cl)cc(C(C)C)c2o1 [Compound No. 1280, 5-(5-chloro-7-isopropyl-4-methylbenzoxazol-2-ylthio)-N-[2,4-bis(ethylthio)-6-methyl-3-pyridyl]pentanamide] | 141 to 142 °C |
| CSc1cc(C)nc(SC)c1NC(=O)CCCCCCCSc1nc2ccccc2o1 [Compound No. 787, 8-(benzoxazol-2-ylthio)-N-[2,4-bis(methylthio)-6-methyl-3-pyridyl]octanamide] | 119 to 122 °C |
| CCSc1cc(C)nc(SCC)c1NC(=O)CCCCCSc1nc2ccccc2s1 [compound 825, 6-(benzothiazol-2-ylthio)-N-[2,4-bis(ethylthio)-6-methyl-3-pyridyl]hexanamide] | 81 to 83 °C |
| Cc1cc(SC(C)C)c(NC(=O)CCCCCCCSc2nc3ccccc3s2)c(SC(C)C)n1 [Compound No. 857, 8-(benzothiazol-2-ylthio)-N-[2,4-bis(isopropylthio)-6-methyl-3-pyridyl]octanamide] | 107 to 108 °C |
| Cc1cc(SC(C)C)c(NC(=O)CCCCCSc2nc3ccccc3[nH]2)c(SC(C)C)n1 [Compound No. 865, 6-(benzimidazol-2-ylthio)-N-[2,4-bis(isopropylthio)-6-methyl-3-pyridyl]hexanamide] | 175 to 176 °C |
| CCSc1cc(C)nc(SCC)c1NC(=O)CCCCCCCSc1nc2ccccc2o1 [Compound No. 817, 8-(benzoxazol-2-ylthio)-N-[2,4-bis(ethylthio)-6-methyl-3-pyridyl]octanamide] | 82 to 84 °C |
| CSc1ncccc1NC(=O)CCCCCSc1nc2ccccc2s1 [compound 15, 6-(benzothiazol-2-ylthio)-N-(2-methylthio-3-pyridyl)hexanamide] | 118 to 119 °C |
| CSc1cc(C)nc(SC)c1NC(=O)CCCCCCCSc1nc2c(C)c(Cl)cc(C(C)C)c2o1 [Example 95, 8-(5-chloro-7-isopropyl-4-methylbenzoxazol-2-ylthio)-N-[2,4-bis(methylthio)-6-methyl-3-pyridyl]octanamide] | 128 to 131 °C |

| SMILES | melting point |
| --- | --- |
| Cc1cc(SC(C)C)c(NC(=O)CCCCCCCCSc2nc3ccccc3[nH]2)c(SC(C)C)n1 [Compound No. 868, 9-(benzimidazol-2-ylthio)-N-[2,4-bis(isopropylthio)-6-methyl-3-pyridyl]nonanamide] | 112 to 114 °C |
| Cc1cc(SC(C)C)c(NC(=O)CCCSc2nc3cccc(C(F)(F)F)c3o2)c(SC(C)C)n1 [Compound No. 1289, 4-(7-trifluoromethylbenzoxazol-2-ylthio)-N-[2,4-bis(isopropylthio)-6-methyl-3-pyridyl]butanamide] | 135 to 136 °C |
| CSc1nc(C)ccc1NC(=O)CCCCCSc1nc2ccccc2[nH]1 [compound 475, 6-(benzimidazol-2-ylthio)-N-(6-methyl-2-methylthio-3-pyridyl)hexanamide] | 138 to 140 °C |
| COC(=O)c1cccc2nc(SCCCCCC(=O)Nc3c(SC)cc(C)nc3SC)oc12 [Compound No. 1238, 6-(7-methoxycarbonylbenzoxazol-2-ylthio)-N-[2,4-bis(methylthio)-6-methyl-3-pyridyl]hexanamide] | 141 to 142 °C |
| CSc1cc(C)nc(SC)c1NC(=O)CSc1nc2ccccc2s1 [Compound No. 791, 2-(benzothiazol-2-ylthio)-N-[2,4-bis(methylthio)-6-methyl-3-pyridyl)acetamide] | 178 to 179 °C |
| CCSc1cc(C)nc(SCC)c1NC(=O)CCCSc1nc2ccccc2[nH]1 [Compound No. 833, 4-(benzimidazol-2-ylthio)-N-[2,4-bis(ethylthio)-6-methyl-3-pyridyl]butanamide] | 160 to 161 °C |
| CCSc1cc(C)nc(SCC)c1NC(=O)CCCCCCSc1nc2ccccc2o1 [Compound No. 816, 7-(benzoxazol-2-ylthio)-N-[2,4-bis(ethylthio)-6-methyl-3-pyridyl]heptanamide] | 103 to 105 °C |
| CSc1nc(C)nc(SC)c1NC(=O)CCCCCSc1nc2ccccc2o1 [Compound No. 1145, 6-(benzoxazole-2-ylthio)-N-[2-methyl-4,6-bis(methylthio)-5-pyrimidyl)hexanamide] | 148 to 151 °C |
| Cc1cc(SC(C)C)c(NC(=O)CCCCCCSc2nc3ccccc3s2)c(SC(C)C)n1 [Compound No. 856, 7-(benzothiazol-2-ylthio)-N-[2,4-bis(isopropylthio)-6-methyl-3-pyridyl]heptanamide] | 74 to 76 °C |
| CCSc1cc(C)nc(SCC)c1NC(=O)CCCCSc1nc2cccc(C(F)(F)F)c2o1 [Compound No. 1270, 5-(7-trifluoromethylbenzoxazol-2-ylthio)-N-[2,4-bis(ethylthio)-6-methyl-3-pyridyl]pentanamide] | 155 to 156 °C |
| CSc1cc(C)nc(SC)c1NC(=O)CCCSc1nc2ccccc2[nH]1 [compound 803, 4-(benzimidazol-2-ylthio)-N-[2,4-bis(methylthio)-6-methyl-3-pyridyl]butanamide] | 177 to 179 °C |
| CCSc1cc(C)nc(SCC)c1NC(=O)CSc1nc2ccccc2[nH]1 [compound 831, 2-(benzimidazol-2-ylthio)-N-[2,4-bis(ethylthio)-6-methyl-3-pyridyl]acetamide] | 182 to 183 °C |
| CCSc1cc(C)nc(SCC)c1NC(=O)CCCCCCCSc1nc2ccccc2s1 [Compound No. 827, 8-(benzothiazol-2-ylthio)-N-[2,4-bis(ethylthio)-6-methyl-3-pyridyl]octanamide] | 94 to 96 °C |
| CCSc1cc(C)nc(SCC)c1NC(=O)CCCCSc1nc2ccccc2s1 [Compound No. 824, 5-(benzothiazol-2-ylthio)-N-[2,4-bis(ethylthio)-6-methyl-3-pyridyl]pentanamide] | 102 to 104 °C |
| CCSc1cc(C)nc(SCC)c1NC(=O)CCCCCCCCSc1nc2c(C)c(Cl)cc(C(C)C)c2o1 [Compound No. 1284, 9-(5-chloro-7-isopropyl-4-methylbenzoxazol-2-ylthio)-N-[2,4-bis(ethylthio)-6-methyl-3-pyridyl]nonanamide] | 93 to 94 °C |
| CCSc1cc(C)nc(SCC)c1NC(=O)CCCCSc1nc2ccccc2[nH]1 [Compound No. 834, 5-(benzimidazol-2-ylthio)-N-[2,4-bis(ethylthio)-6-methyl-3-pyridyl]pentanamide] | 163 to 165 °C |
| CSc1cc(C)nc(SC)c1NC(=O)CCCCCSc1nc2ccccc2s1 [compound 795, 6-(benzothiazol-2-ylthio)-N-[2,4-bis(methylthio)-6-methyl-3-pyridyl]hexanamide] | 123 to 125 °C |
| CSc1ncccc1NC(=O)CCCCCCCCSc1nc2ccccc2s1 [compound 18, 9-(benzothiazol-2-ylthio)-N-(2-methylthio-3-pyridyl)nonanamide] | 107 to 108 °C |
| CSc1cc(C)nc(SC)c1NC(=O)CCCCCCSc1nc2c(C)c(Cl)cc(C(C)C)c2o1 [Compound No. 1262, 7-(5-chloro-7-isopropyl-4-methylbenzoxazol-2-ylthio)-N-[2,4-bis(methylthio)-6-methyl-3-pyridyl]heptanamide] | 129 to 131 °C |

Source: US7414066B2, “Amide compounds and medications containing the same technical field” (Kowa Company Ltd., priority 1999, dated 2008)
